Consider eleven compounds from ChEMBL document CHEMBL1201862, “PubChem BioAssay data set” (2004).

Some test systems named below: SF-295; HOP-92; OVCAR-8; CAKI-1; MOLT-4; SF-268; TK-10; SR; HCT-15; HT-29; KM12; SF-539; IGROV-1; M14; NCI-H522; ACHN; A549; A498; U-251.
Holding throughout (assay): growth of human tumour cells (NCI), 48 h

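Tested at 5 concentrations; 48 h exposure; 96-well plates; endpoints linearly interpolated, else capped at highest concentration. GI50 is the concentration that inhibits growth by half.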 Activity calls are given as the source filed them. Cut-off read from the data, not from the text of the source: active = GI50 up to about 1.1 µM and inactive = higher. Bounds are passed on as bounds.

As to `OCCC/N=C1N=C(Cl)/C(=C\c2ccccc2)N\1`, the GI50 in the assay on SF-295, in the assay on HOP-92, in the assay with OVCAR-8, in the assay on CAKI-1, with MOLT-4 and with SF-268 was > 100 µM (inactive) in each case. Besides, the GI50 in the assay with TK-10 is > 100 µM (inactive); in the assay on SR it was > 100 µM (inactive); in the assay on HCT-15 it was greater than 100 µM; with HT-29, > 100 µM (inactive); in the assay with KM12, > 100 µM (inactive); in the assay on SF-539, > 100 µM (inactive). Also, the GI50 in the assay with IGROV-1, in the assay on M14, in the assay on NCI-H522, in the assay with ACHN, in the assay on A549 and with A498 was > 100 µM (inactive) in each case. In the assay with U-251, the GI50 was > 100 µM (inactive).

For the compound `O=C1NC(=S)NC(=O)C1=Cc1cccc2cc3ccccc3cc12`, the GI50 was 2.46 µM (inactive) in the assay with SF-295; 1.66 µM (inactive) with HOP-92; 1.86 µM (inactive) in the assay on OVCAR-8; 2.03 µM (inactive) in the assay with CAKI-1; 2.12 µM (inactive) with MOLT-4; 2.06 µM (inactive) in the assay on SF-268. The GI50 was 1.89 µM (inactive) with TK-10; 1.44 µM (inactive) in the assay on SR; 1.68 µM in the assay with HCT-15; 2.13 µM (inactive) in the assay on HT-29; 1.98 µM (inactive) in the assay on KM12; 1.58 µM (inactive) in the assay on SF-539. For the same compound, the GI50 in the assay on IGROV-1 was 1.67 µM (inactive); in the assay on M14, 2.24 µM (inactive); in the assay on NCI-H522, 1.91 µM (inactive); in the assay with ACHN, 1.95 µM (inactive); in the assay with A549, 3.08 µM (inactive); in the assay on A498, 1.97 µM (inactive). In the assay with U-251, the GI50 is 1.69 µM (inactive).

As for `O=c1[nH]nc(-c2ccccc2)n1/N=C/c1ccncc1`, the GI50 in the assay on SF-295, in the assay on HOP-92, in the assay on OVCAR-8, in the assay with CAKI-1, with MOLT-4 and with SF-268 was > 100 µM (inactive) throughout. The GI50 was > 100 µM (inactive) with TK-10; 74.1 µM (inactive) with SR; greater than 100 µM in the assay with HCT-15; > 100 µM (inactive) in the assay with HT-29; > 100 µM (inactive) in the assay on KM12; 61.8 µM (inactive) in the assay on SF-539. In addition, the GI50 is > 100 µM (inactive) in the assay on IGROV-1; > 100 µM (inactive) in the assay with M14; > 100 µM (inactive) with NCI-H522; > 100 µM (inactive) in the assay on ACHN; > 100 µM (inactive) in the assay on A549; 24.9 µM (inactive) in the assay with A498. Also, the GI50 with U-251 was > 100 µM (inactive).

In the case of `CCN(CC)c1ccc(C2NC(=O)c3ccccc3N2)cc1` (centres undefined), the GI50 in the assay with SF-295 was 3.01 µM (inactive); with HOP-92 it was 3.05 µM (inactive); in the assay with OVCAR-8, 3.62 µM (inactive); in the assay with CAKI-1 it was 2.82 µM (inactive); in the assay on MOLT-4 it was 3.55 µM (inactive); in the assay with SF-268 it was 8.57 µM (inactive). Besides, the GI50 is > 100 µM (inactive) with TK-10; 0.557 µM (active) in the assay on SR; 1.13 µM in the assay with HCT-15; 2.31 µM (inactive) in the assay on HT-29; 2.15 µM (inactive) in the assay with KM12; 2.71 µM (inactive) in the assay with SF-539. In addition, the GI50 in the assay on IGROV-1 is 5.24 µM (inactive); with M14, 2.93 µM (inactive); in the assay on NCI-H522, 14.8 µM (inactive); with ACHN, 7.03 µM (inactive); with A549, 3.27 µM (inactive); in the assay on A498 it was 4.95 µM (inactive). Further, the GI50 in the assay on U-251 is 4.34 µM (inactive).

For the compound `Cn1c(=O)nc2n(CCO)ccnc-2c1=O`, the GI50 with SF-295, in the assay with HOP-92, with OVCAR-8, with CAKI-1, in the assay with MOLT-4 and in the assay on SF-268 was > 100 µM (inactive) in each case. Also, the GI50 with TK-10 is > 100 µM (inactive); with SR it was > 100 µM (inactive); in the assay on HCT-15, greater than 100 µM; in the assay on HT-29 it was > 100 µM (inactive); with KM12, > 100 µM (inactive); in the assay with SF-539, > 100 µM (inactive). In addition, the GI50 in the assay with IGROV-1, with M14, in the assay with NCI-H522, with ACHN, in the assay with A549 and in the assay on A498 was > 100 µM (inactive) throughout. For the same compound, in the assay with U-251, the GI50 is > 100 µM (inactive).

As to `O=C1C2CCCCC2C(=O)N1n1c(Cc2ccc(Cl)cc2)n[nH]c1=O` (centres undefined), the GI50 in the assay with SF-295, with HOP-92, in the assay with OVCAR-8, with CAKI-1, with MOLT-4 and in the assay with SF-268 was > 100 µM (inactive) throughout. In addition, the GI50 in the assay with TK-10 is > 100 µM (inactive); in the assay with SR it was > 100 µM (inactive); with HCT-15, greater than 100 µM; with HT-29, > 100 µM (inactive); in the assay on KM12 it was > 100 µM (inactive); with SF-539, > 100 µM (inactive). For the same compound, the GI50 in the assay with IGROV-1, in the assay with M14, in the assay with NCI-H522, in the assay on ACHN, in the assay with A549 and with A498 was > 100 µM (inactive) throughout. Further, the GI50 in the assay with U-251 was > 100 µM (inactive).

Regarding `COc1cc2c(cc1OCCCCCN1C(=O)c3cccc4cccc(c34)C1=O)N=C[C@@H]1CCCN1C2=O`, the GI50 in the assay with SF-295 was 0.386 µM (active); in the assay on HOP-92, 0.142 µM (active); in the assay with OVCAR-8, 0.281 µM (active); with CAKI-1 it was 0.208 µM (active); with MOLT-4, 0.0743 µM (active); with SF-268, 0.207 µM (active). Moreover, the GI50 in the assay with TK-10 is 0.129 µM (active); with SR it was < 0.01 µM (active); in the assay with HCT-15, 0.331 µM; with HT-29 it was 0.286 µM (active); in the assay with KM12 it was 0.231 µM (active); in the assay with SF-539 it was 0.0646 µM (active). Also, the GI50 in the assay with IGROV-1 is 0.0552 µM (active); with M14, 0.24 µM (active); in the assay with NCI-H522, 0.0336 µM (active); in the assay on ACHN it was 0.167 µM (active); with A549, 0.535 µM (active); in the assay with A498, 0.31 µM (active). The GI50 with U-251 is 0.249 µM (active).

For the compound `COc1cc(CC2C(=O)OCC2Cc2ccc(OC)c(OC)c2)ccc1O` (centres undefined), the GI50 in the assay with SF-295 was 8.85 µM (inactive); in the assay with HOP-92, 29.5 µM (inactive); in the assay with OVCAR-8 it was > 100 µM (inactive); with CAKI-1, > 100 µM (inactive); in the assay on MOLT-4, 4.76 µM (inactive); in the assay with SF-268 it was > 100 µM (inactive). Also, the GI50 in the assay on TK-10 was > 100 µM (inactive); in the assay with SR, > 100 µM (inactive); in the assay with HCT-15, greater than 100 µM; with HT-29, > 100 µM (inactive); in the assay on KM12 it was > 100 µM (inactive); in the assay with SF-539, > 100 µM (inactive). For the same compound, the GI50 was > 75.3 µM (inactive) with IGROV-1; > 100 µM (inactive) in the assay with M14; > 100 µM (inactive) in the assay on NCI-H522; > 88.9 µM (inactive) in the assay on ACHN; > 71.8 µM (inactive) in the assay on A549; > 100 µM (inactive) in the assay on A498. Also, in the assay with U-251, the GI50 was > 100 µM (inactive).

Turning to `CC1=Nc2ccccc2/C1=C\c1c(C)[nH]c2ccccc12`, the GI50 in the assay on SF-295 was 18.6 µM (inactive); with HOP-92, 3.73 µM (inactive); in the assay on OVCAR-8, 12.4 µM (inactive); in the assay with CAKI-1 it was 13.8 µM (inactive); in the assay with MOLT-4, 3.4 µM (inactive); in the assay with SF-268 it was 11.2 µM (inactive). Besides, the GI50 in the assay with TK-10 was 16.3 µM (inactive); with SR, 5.9 µM (inactive); in the assay with HCT-15 it was 12.9 µM; in the assay with HT-29, 12.8 µM (inactive); with KM12 it was 13.2 µM (inactive); with SF-539, 24.5 µM (inactive). Also, the GI50 with IGROV-1 is 12.5 µM (inactive); in the assay on M14, 23.2 µM (inactive); in the assay with NCI-H522, 10 µM (inactive); in the assay on ACHN it was 15.7 µM (inactive); in the assay on A549 it was 23.1 µM (inactive); in the assay on A498, 17.5 µM (inactive). The GI50 with U-251 is 15.9 µM (inactive).

For the compound `CCC1CC(C)C(O)/C=C/C=C/CC(C)OC(=O)CC(O)C(OC)C1OC1OC(C)CC(O)(C(C)=O)C1O` (centres undefined), the GI50 with SF-295 is > 100 µM (inactive); with HOP-92, > 100 µM (inactive); with OVCAR-8, > 100 µM (inactive); in the assay on CAKI-1, 13.1 µM (inactive); in the assay on MOLT-4, 21.7 µM (inactive); in the assay on SF-268, 83.6 µM (inactive). In addition, the GI50 was 60.8 µM (inactive) in the assay on TK-10; 14.1 µM (inactive) in the assay with SR; 23.9 µM in the assay with HCT-15; 59.4 µM (inactive) with HT-29; 35.2 µM (inactive) with KM12; 78.9 µM (inactive) with SF-539. The GI50 with IGROV-1 was > 100 µM (inactive); in the assay with M14 it was 78.5 µM (inactive); with NCI-H522, 13.3 µM (inactive); in the assay on ACHN, 49.5 µM (inactive); with A549 it was > 100 µM (inactive); in the assay with A498, 77.4 µM (inactive). For the same compound, the GI50 in the assay with U-251 is 60.4 µM (inactive).

Turning to `c1ccc2cc(CN3CCC(C4CCN(Cc5ccc6ccccc6c5)CC4)CC3)ccc2c1`, the GI50 with SF-295 was 1.9 µM (inactive); in the assay with HOP-92, 4.1 µM (inactive); in the assay on OVCAR-8, 3.92 µM (inactive); in the assay with CAKI-1, 5.53 µM (inactive); with MOLT-4, 3.41 µM (inactive); in the assay on SF-268, 8.53 µM (inactive). For the same compound, the GI50 is 3.82 µM (inactive) with TK-10; 3.24 µM (inactive) with SR; 3.18 µM in the assay on HCT-15; 1.52 µM (inactive) in the assay on HT-29; 2.97 µM (inactive) in the assay with KM12; 1.8 µM (inactive) with SF-539. The GI50 in the assay with IGROV-1 was 6.4 µM (inactive); in the assay on M14 it was 1.91 µM (inactive); in the assay with NCI-H522, 1.89 µM (inactive); in the assay on ACHN, 4.99 µM (inactive); in the assay with A549 it was 4.2 µM (inactive); in the assay with A498, 10.8 µM (inactive). Besides, in the assay on U-251, the GI50 was 2.33 µM (inactive).
